# Results published in US8367684B2, “Derivatives of 4-(N-azacycloalkyl) anilides as potassium channel modulators” (Valeant Pharmaceuticals International, priority 2007, dated 2013).
# pEC50: −log10 of the molar value.
# Test system: potassium ion channels
# Assay: Rubidium (Rb+) efflux assay in NGF-differentiated PC-12 cells, potassium channel modulation
# Format: cell-based
# Conditions: depolarization buffer with 15 mM KCl, 10 min at room temperature, read-out: ACTIVITY (EC50, compound's concentration for 50% of maximal Rb+ efflux)
# Procedure: Compounds of this invention formula were evaluated as potassium channel modulators by measuring rhubidium release in the following assay.
# Methods: PC-12 cells were grown at 37° C. and 5% CO2 in DMEM/F12 Medium supplemented with 10% horse serum, 5% fetal bovine serum, 2 mM glutamine, 100 U/ml penicillin, 100 U/ml streptomycin. They were plated in poly-D-lysine-coated 96-well cell culture microplates at a density of 40,000 cells/well and differentiated with 100 ng/ml NGF-7s for 2-5 days. For the assay, the medium was aspirated and the cells were washed once with 0.2 ml in wash buffer (25 mM Hepes, pH 7.4, 150 mM NaCl, 1 mM MgCl2, 0.8 mM NaH2PO4, 2 mM CaCl2). The cells were then loaded with 0.2 ml Rb^+ loading buffer (wash buffer plus 5.4 mM […], 5 mM glucose) and incubated at 37° C. for 2 h. Attached cells were quickly washed three times with buffer (same as Rb^+ loading buffer, but containing 5.4 mM KCl instead of RbCl) to remove extracellular Rb^+. Immediately following the wash, 0.2 ml of depolarization buffer (wash buffer plus 15 mM KCl) with or without compounds was added to the cells to activate efflux of potassium ion channels. After incubation for 10 min at room temperature, the supernatant was carefully removed and collected. Cells were lysed by the addition of 0.2 ml of lysis buffer (depolarization buffer plus 0.1% Triton X-100) and the cell lysates were also collected. If collected samples were not immediately analyzed for Rb^+ contents by atomic absorption spectroscopy (see below), they were stored at 4° C. without any negative effects on subsequent Rb^+ analysis.
# The concentration of Rb^+ in the supernatants (Rb^+Sup) and cell lysates (Rb^+Lys) was quantified using an ICR8000 flame atomic absorption spectrometer (Aurora Biomed Inc., Vancouver, B.C.) under conditions defined by the manufacturer. One 0.05 ml samples were processed automatically from microtiter plates by dilution with an equal volume of Rb^+ sample analysis buffer and injection into an air-acetylene flame. The amount of Rb^+ in the sample was measured by absorption at 780 nm using a hollow cathode lamp as light source and a PMT detector. A calibration curve covering the range 0-5 mg/L Rb^+ in sample analysis buffer was generated with each set of plates. The percent Rb^+ efflux (F) was defined by F=[Rb^+sup/(Rb^+sup+Rb^+Lys)]×100%.
# The effect (E) of a compound was defined by: E=[(Fc−Fb)/(Fs−Fb)]×100% where the Fc is the efflux in the presence of compound in depolarization buffer, Fb is the efflux in basal buffer, and Fs is the efflux in depolarization buffer, and Fc is the efflux in the presence of compound in depolarization buffer. The effect (E) and compound concentration relationship was plotted to calculate an EC50 value, a compound's concentration for 50% of maximal Rb^+ efflux. Legend: A: EC50=1 nM-50 nM; B: EC50=50 nM-100 nM; C: EC50=100-200 nM.
row,pEC50,Compound
1,7.30 to 9.00,COc1nc(N2CCc3cc(F)ccc3C2)nc(OC)c1NC(=O)CC(C)(C)C
2,7.30 to 9.00,Cc1cc(N2CCc3ccccc3C2)nc(C)c1NC(=O)CC(C)(C)C
3,7.00 to 7.30,Cc1nc(N2CCc3ccccc3C2)nc(C)c1NC(=O)CC(C)(C)C
4,7.30 to 9.00,COc1nc(N2CCc3ccccc3C2)nc(OC)c1NC(=O)CC(C)(C)C
5,7.30 to 9.00,Cc1cc(N2CCc3cc(F)ccc3C2)nc(C)c1NC(=O)CC(C)(C)C
6,7.30 to 9.00,Cc1cc(N2CCc3cc(C(F)(F)F)ccc3C2)nc(C)c1NC(=O)CC(C)(C)C
